Data set [1] relates to classical pathway activation (C3b deposition). Kind of data set: Classical pathway activation ELISA (C3b deposition) with or without rabbit vitreous. In kind it is biochemical, human. The settings on record: in the absence of vitreous. The protocol: An alternative explanation to the one presented above is that the vitreous contains additional unidentified factors that associate with the Cp40-KKK analog. To investigate whether an unidentified vitreous factor impacts the complement inhibitory activity of lysine containing compounds, complement activation assays were performed using vitreous samples. Briefly, human plasma was incubated with OVA-anti-OVA immune-complexes in the presence of serial dilutions of the Cp40-based analogs mixed with rabbit vitreous. Levels of classical pathway activation (C3b deposition) were determined by ELISA using a polyclonal anti-human C3 antibody conjugated with HRP (MP Biomedicals, Solon, Ohio) (FIG. 20).

Data set [2] in a line: Pharmacokinetics after single i.m. injection. The settings on record: cynomolgus monkey, in vivo, im, 25 mg/kg.
Data set [3] in a line: Plasma concentration after multiple injections in NHP. The data set is classed as in vivo, cynomolgus monkeys. The settings on record: cynomolgus monkey, plasma, sc; 2 mg/kg every 48 hrs; read-out: observed Cmax after multiple s.c. dosing.
The next data set has as its target T1, human C3b (Homo sapiens, UniProt P01024).
T1 construct: purchased Complement Technology, Inc., Tyler, Tex
Kind of data set: SPR binding affinity and kinetics with C3b. As to conditions: 25° C., 1:1 Langmuir model; read-out: ka, association constant. In general terms: Surface plasmon resonance follows binding to a sensor surface in real time, without labels.

Data set [4] can be described thus: Solubility of Cp40-based analogs in PBS.
Data set [5] in a line: Pharmacokinetics in NHP plasma after single s.c. injection.
Data set [6] in a line: Lys cleavage fragments in NHP plasma after s.c. injection (UPLC-ESI-MS). As to conditions: after s.c. 2 mg/kg Cp40-KKK, both animals. The data set is classed as in vivo, cynomolgus monkeys.
Data set [7] in a line: Pharmacokinetics after single i.v. injection. The arrangement: species or system cynomolgus monkeys. As to conditions: cynomolgus monkey, in vivo, iv. Here is the method: In vivo pharmacokinetic studies were conducted, in which cynomolgus monkeys were administered single i.v. injections of mPEG(1k)-Cp40, mPEG(3k)-Cp40, Cp40-KK, or Cp40-KKK.
Data set [8] is described as follows: Residence time in the vitreous after intravitreal injection (WES / SPR competition assay). The data set is classed as in vivo, cynomolgus monkeys. As to conditions: for detection in the vitreous at time points post-injection: days 14-90. Here is the method: To determine the residence time of mPEG(3k)-Cp40, mPEG(1k)-Cp40, Cp40-KK, and Cp40-KKK in the vitreous of cynomolgus macaques, these Cp40-based analogs were administered intravitreally (i.v.t.) to the animals after induction of light ketamine anesthesia (10-15 mg/kg, by intramuscular injection (i.m.)) and dilation of the pupils with tropicamide/phenylephrine ophthalmic solution (see Table 6 for study design).
For i.v.t. injection, the cynomolgus monkeys were anesthetized with a combination of ketamine (15-25 mg/kg, i.m.) and xylazine (2 mg/kg, i.m.) and the eye was cleaned with povidone-iodine solution. After application of oxybuprocaine hydrochloride solution (Benoxil® ophthalmic solution 0.4%) to the cornea as a local anesthetic, the Cp40-based analogs were administered to the animals by i.v.t. injection into either the right (G1, G3) or left (G2, G4) eye of each animal. Immediately following each injection, a single topical dose of 0.5% levofloxacin was administered. After i.v.t. injection of mPEG(3k)-Cp40, mPEG(1k)-Cp40, Cp40-KK, and Cp40-KKK, vitreous fluid samples (about 50 μL each) were withdrawn from Cp40-based analog-treated eyes on days 14, 28, 42, (G1, G2, G3, G4), 56, 73, 90 (G1, G2) (this was done either three times or six times). Samples were collected on ice and stored in a deep freezer (−79.3 to −68.5° C.) until further analysis. On day 73 and 90, about 100 μL of vitreous fluid from G1 and G2 were withdrawn. Presence and concentration of the Cp40-based analogs was determined using either the simple western technology (WES, ProteinSimple, San Jose, Calif.), or surface plasmon resonance (SPR)-based real-time measurement of binding kinetics on a Cp40-KKK immobilized chip (see detailed methods below). Similar results with regard to the intravitreal residence time and concentration levels of the test compounds were obtained regardless of the quantification method selected.
To quantify the levels of all test compounds in vitreous samples collected at different time points following i.v.t. injection (see FIG. 15), WES analysis was performed on a WES instrument (ProteinSimple, San Jose, Calif.) using a 2 to 40 kDa Separation Module and Anti-Rabbit Detection Module according to the manufacturers' instructions. In brief, undiluted eye vitreous samples were mixed with a Fluorescent Master Mix and heated at 95° C. for 5 min. The samples, blocking reagent, primary antibodies (in house developed anti-Cp40; 1:1000 in blocking reagent), HRP-conjugated secondary antibody (anti-rabbit IgG) and chemiluminescent substrate were pipetted into the plate (part of Separation Module). The used instrument settings were: stacking and separation at 375 V for 27 min; blocking reagent for 30 min, primary and secondary antibody both for 30 min; Luminol/peroxide chemiluminescence detection for ˜15 min (exposures of 5, 15, 30, 60, 120, 240, and 480 s). The resulting electropherograms were evaluated using the Compass software (ProteinSimple, San Jose, Calif.). The following criteria were used to discriminate low peptide signals from background: The peak signal-to-noise (S/N) ratio given by the software must be ≥10, and the peak height/baseline ratio (calculated manually from the peak height and baseline values given by the software) must be equal to or greater than 3. A five-point standard curve of known concentrations (100-2,000 nM) of peptide spiked in rabbit vitreous was used to calculate peptide concentration in the vitreous samples using the Compass software (Compass Software Inc., Atlanta, Ga.). […] Shown in FIG. 15 is a representative standard curve generated using the WES system and bands obtained upon running pre-determined amounts of purified peptide spiked into rabbit vitreous samples.
To corroborate the WES-based measurements for all test compounds, an SPR-based competition assay was developed for detecting Cp40 and Cp40 analogs in biological samples. […] The samples were heated at 95° C. for 5 min. […]

The next data set deals with T2, purified human C3b (Homo sapiens, UniProt P01024).
T2 construct: purchased Complement Technology, Inc., Tyler, Tex
Put plainly: SPR C3b binding of Cp40-KKK in vitreous samples. The settings on record: for C3b-binding signal: day 14. The protocol:
To confirm that the compound present in the NHP vitreous maintains C3b-binding activity, which is a prerequisite for eliciting its inhibitory action across all complement pathways, surface plasmon resonance (SPR) binding experiments were conducted. Briefly, for a positive binding control, serial dilutions of Cp40-KKK (16, 8, 4, and 2 nM) were added to rabbit vitreous samples and flowed onto a Biacore CM5 chip immobilized with purified human C3b (Complement Technology Inc, Tyler, Tex.) (see FIG. 19A). Next, vitreous samples were collected from a Cp40-KKK injected eye at day 14 post-injection and subjected to heat-inactivation at 95° C. for 5 min. Both heat-inactivated and non-heat-inactivated samples were flowed onto a CM5 chip immobilized with purified human C3b as indicated above (FIG. 19B).

The subject of a further data set is C3. Put plainly: C3 saturation in NHP plasma after single s.c. injection. The data set is classed as in vivo, cynomolgus monkeys (Macaca fascicularis). The settings on record: single s.c. 2 mg/kg.
For data set [9] the following is noted: cynomolgus monkey, in vivo, sc, 2 mg/kg.
The mark [10] stands for this setting: at the solubility concentration.
[11] abbreviates: single s.c. 2 mg/kg, NHP plasma, two animals, listed as Cp40-KKK (SUM), 2 mg/kg.

Values joined by “and” are separate entries in the source; they are usually repeats but may differ in a detail not shown here. Identical values can stand only once. Like-named read-outs stand apart in the source and are kept apart here. Marks after values point to notes of the source that are not given here. Some results are limits rather than exact numbers.

T2 sequence (P01024 23-667 limits assumed): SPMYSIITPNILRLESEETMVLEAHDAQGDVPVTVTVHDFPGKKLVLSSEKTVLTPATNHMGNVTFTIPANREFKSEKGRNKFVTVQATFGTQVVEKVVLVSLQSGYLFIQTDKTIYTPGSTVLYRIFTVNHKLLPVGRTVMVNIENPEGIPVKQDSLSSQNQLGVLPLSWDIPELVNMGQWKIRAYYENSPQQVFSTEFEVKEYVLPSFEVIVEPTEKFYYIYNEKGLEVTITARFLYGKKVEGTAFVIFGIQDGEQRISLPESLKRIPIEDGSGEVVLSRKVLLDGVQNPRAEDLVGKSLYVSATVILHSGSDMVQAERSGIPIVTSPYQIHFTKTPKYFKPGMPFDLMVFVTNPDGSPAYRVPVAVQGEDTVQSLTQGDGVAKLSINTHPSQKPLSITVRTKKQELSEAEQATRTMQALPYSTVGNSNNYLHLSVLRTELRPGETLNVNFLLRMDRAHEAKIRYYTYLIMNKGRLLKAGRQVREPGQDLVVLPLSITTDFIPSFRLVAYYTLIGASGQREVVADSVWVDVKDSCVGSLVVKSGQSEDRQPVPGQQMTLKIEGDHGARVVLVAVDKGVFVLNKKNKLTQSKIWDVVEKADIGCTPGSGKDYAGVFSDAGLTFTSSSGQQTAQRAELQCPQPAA
T2 sequence (P01024 749-1663 partner limits assumed): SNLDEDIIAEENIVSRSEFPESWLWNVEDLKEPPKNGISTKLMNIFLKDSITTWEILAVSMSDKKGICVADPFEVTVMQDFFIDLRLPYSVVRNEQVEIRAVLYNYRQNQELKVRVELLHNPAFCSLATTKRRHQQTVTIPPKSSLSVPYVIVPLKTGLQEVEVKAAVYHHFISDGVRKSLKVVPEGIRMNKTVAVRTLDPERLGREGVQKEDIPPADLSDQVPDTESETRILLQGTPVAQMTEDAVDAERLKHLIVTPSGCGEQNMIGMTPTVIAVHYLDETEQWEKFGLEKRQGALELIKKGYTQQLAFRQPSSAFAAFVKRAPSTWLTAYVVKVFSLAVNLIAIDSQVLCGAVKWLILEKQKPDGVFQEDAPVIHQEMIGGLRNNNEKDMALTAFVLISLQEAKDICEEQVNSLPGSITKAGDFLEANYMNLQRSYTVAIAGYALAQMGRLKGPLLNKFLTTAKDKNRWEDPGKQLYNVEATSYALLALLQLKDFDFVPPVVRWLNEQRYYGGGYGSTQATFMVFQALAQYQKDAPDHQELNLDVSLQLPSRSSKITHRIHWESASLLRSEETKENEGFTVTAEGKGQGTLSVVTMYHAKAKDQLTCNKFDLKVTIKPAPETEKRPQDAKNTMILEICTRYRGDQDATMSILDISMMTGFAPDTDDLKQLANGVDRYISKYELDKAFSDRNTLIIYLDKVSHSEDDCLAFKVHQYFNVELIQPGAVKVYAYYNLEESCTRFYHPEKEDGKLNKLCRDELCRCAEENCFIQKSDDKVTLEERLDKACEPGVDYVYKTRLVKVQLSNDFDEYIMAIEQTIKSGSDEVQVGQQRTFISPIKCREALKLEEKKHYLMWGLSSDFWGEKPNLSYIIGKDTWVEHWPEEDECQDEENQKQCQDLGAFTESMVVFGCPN
T1 sequence (P01024 23-667 limits assumed): as the sequence (P01024 23-667 limits assumed) above
T1 sequence (P01024 749-1663 partner limits assumed): as the sequence (P01024 749-1663 partner limits assumed) above

On to `CC[C@H](C)[C@H](NC(=O)[C@H](N)Cc1ccc(O)cc1)C(=O)N[C@H]1CSSC[C@@H](C(=O)N(C)[C@H](C(=O)N[C@@H](CCCCN)C(=O)N[C@@H](CCCCN)C(=O)N[C@@H](CCCCN)C(N)=O)[C@@H](C)CC)NC(=O)[C@H](CCCNC(=N)N)NC(=O)[C@H](Cc2c[nH]cn2)NC(=O)[C@H](C)NC(=O)CN(C)C(=O)[C@H](Cc2c[nH]c3ccccc23)NC(=O)[C@H](CC(=O)O)NC(=O)[C@H](CCC(N)=O)NC(=O)[C@H](Cc2cn(C)c3ccccc23)NC(=O)[C@H](C(C)C)NC1=O` [Cp40-KKK, DTyr-Ile-[Cys-Val-Trp(Me)-Gln-Asn-Trp-Sar-Ala-His-Arg-Cys]-mIle-Lys-Lys-Lys-NH2], for which the “complement classical pathway inhibitory activity” value in [1] is “inhibitory activity in a dose-dependent manner”. The half-life in data set [2] was roughly 192 h; in [5] (male, cynomolgus monkey, plasma, sc, 2 mg/kg, t1/2, single s.c. 2 mg/kg, NHP plasma, two animals) it was roughly 44.3 h; in data set [7] (single i.v. injection 2 mg/kg), 35.3 h. The Cmax in [3] is no less than 20 µM; in data set [5] (male, cynomolgus monkey, plasma, sc, 2 mg/kg, Cmax, single s.c. 2 mg/kg, NHP plasma, two animals), roughly 13.5 µM; in data set [5] (setting [11]), 11.9 µM and 15.1 µM. On human C3b, the kon turned out to be 3.83e+06 M⁻¹ s⁻¹. The “pH of the peptide solution in PBS” value in [4] (after additional lyophilization from H2O) is 9.5; in data set [4] (setting [10]) it was 8.5; in [4] (pH adjusted upon addition of PBS), 7.5*. The same compound gave a CL/F in [5] (male, cynomolgus monkey, plasma, sc, 2 mg/kg) of roughly 45 mL/min/kg. Further, the AUC(0-t) in data set [5] (male, cynomolgus monkey, plasma, sc, 2 mg/kg, AUC0-t (0-120 h), single s.c. 2 mg/kg, NHP plasma, two animals) is roughly 616 µM·h; in data set [7] (single i.v. injection 2 mg/kg, read-out: AUC 0-120) it was 312 µM·h. Besides, the AUC(0-inf) in data set [5] (male, cynomolgus monkey, plasma, sc, 2 mg/kg, AUCinf, single s.c. 2 mg/kg, NHP plasma, two animals) amounted to 805 µM·h. Moreover, the “AUC0-t increased vs Cp40” value in data set [5] (s.c. 2 mg/kg) was roughly 2.6 fold. In addition, the “CL/F decreased vs Cp40” value in data set [5] (s.c. 2 mg/kg) is recorded as roughly 3 fold. Also, the “cmax higher than Cp40” value in data set [5] (s.c. 2 mg/kg) was roughly 2 fold. The t1/2 was 42 h and 47 h in data set [5] (single s.c. 2 mg/kg, NHP plasma, two animals, 2 mg/kg); 46.7 h and 41.8 h in data set [5] (setting [11]). The “AUC0-t (0-120 h)” value in data set [5] (setting [11]) was 658 µM·h and 573 µM·h. In [5] (setting [11]), this compound came in with an AUCinf of 685 µM·h. Besides, the “concentration of intact Cp40-KKK in plasma at any time point” value in [6] was no more than 2 µM. Further, the “Lys cleavage in plasma upon i.v. injection” value in [7] was “metabolized into Cp40-KK and small amounts of Cp40-K”. For the same compound, the intravitreal residence time in data set [8] (after i.v.t.) is given as no less than 3 months. Also, the “vitreous residence time at C3 saturating levels” value in [8] (single i.v.t. injection 0.5 mg) is no less than 90 days. For the same compound, in data set [8] (single i.v.t. injection 0.5 mg), the “detection in the vitreous at time points post-injection” value is reported as “detected even at day 90 post-treatment”. Besides, the C3b-binding signal at purified human C3b (heat-inactivated vitreous sample) is reported as 10 relative units; at purified human C3b (non-heat inactivated vitreous sample), 2 relative units. For the same compound, at purified human C3b (spiked into rabbit vitreous, 2-16 nM), the “binding to C3b” value is reported as “binds to C3b in a dose-dependent manner”. Moreover, at purified human C3b (vitreous from injected eye, day 14 post-injection), the “C3b-binding activity of compound present in NHP vitreous” value is “maintains its C3b-binding activity”.
On to “mPEG(3k)-Cp40: N-terminus of Cp40 coupled to polydisperse PEG chain of 3 kDa via amide coupling”, for which the “Conc. (solubility in PBS)” value in data set [4] (PBS (pH 7.4)) amounted to 270 mg/mL. Further, the “pH of the peptide solution in PBS” value in data set [4] (setting [10]) is reported as 7. Further, the “C3 saturation time (peptide above plasma level of C3)” value with C3 is roughly 34 h. In addition, the “detection in the vitreous at time points post-injection” value in data set [8] (single i.v.t. injection 0.5 mg) is “detected at day 14 post injection but not in later time points”. In data set [9], this compound had a CL/F of roughly 43.5 mL/min/kg.

Broadly, the half-life is the time in which the quantity being followed falls by half. The Cmax is the peak of the concentration-time curve. The term CL/F denotes clearance divided by bioavailability, as obtained after extravascular dosing. As a reminder, the AUC(0-inf) is the area under the concentration-time curve extrapolated to infinity.

The values above are taken from patent US10800812B2, “Compstatin analogs with increased solubility and improved pharmacokinetic properties” (The Trustees of the University of Pennsylvania, priority 2018, dated 2020).
